Measurements published in ChEMBL document CHEMBL3779795, “Design and synthesis of thiourea derivatives with sulfur-containing heterocyclic scaffolds as potential tyrosinase inhibitors” (Bioorg Med Chem, 2016).
pIC50, pKi: −log10 of the molar value.

Tests used:
Tyrosinase [1] = molecular target: T1, Tyrosinase (Agaricus bisporus, UniProt O42713); assay: Inhibition of diphenolase activity of mushroom tyrosinase preincubated for 10 mins followed by addition of L-DOPA measured for 5 mins by spectrophotometry
T1 sequence (O42713 whole entry): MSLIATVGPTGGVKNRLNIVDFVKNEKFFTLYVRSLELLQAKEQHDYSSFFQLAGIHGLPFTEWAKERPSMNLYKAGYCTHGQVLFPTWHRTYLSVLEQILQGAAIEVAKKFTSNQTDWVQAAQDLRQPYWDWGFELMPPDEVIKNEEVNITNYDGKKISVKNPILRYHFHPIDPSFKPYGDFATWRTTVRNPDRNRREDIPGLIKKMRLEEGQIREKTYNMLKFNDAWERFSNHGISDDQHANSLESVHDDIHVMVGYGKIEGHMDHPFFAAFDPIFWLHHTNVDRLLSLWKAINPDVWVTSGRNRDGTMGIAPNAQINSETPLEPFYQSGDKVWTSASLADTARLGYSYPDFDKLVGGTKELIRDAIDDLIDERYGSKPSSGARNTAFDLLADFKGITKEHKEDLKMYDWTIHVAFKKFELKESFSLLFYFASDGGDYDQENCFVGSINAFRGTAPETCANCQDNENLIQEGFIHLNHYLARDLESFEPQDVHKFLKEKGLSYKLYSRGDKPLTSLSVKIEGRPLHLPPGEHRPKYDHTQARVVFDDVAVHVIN

Tyrosinase [2] = molecular target: T1, Tyrosinase; assay: Noncompetitive inhibition of diphenolase activity of mushroom tyrosinase preincubated for 10 mins followed by addition of L-DOPA measured for 5 mins by Lineweaver-Burk plot analysis

| SMILES | pIC50 (Tyrosinase [1]) | pKi (Tyrosinase [2]) |
| --- | --- | --- |
| O=C(O)CSc1nnc(NC(=S)Nc2ccc(F)c(F)c2)s1 | 4.69 |  |
| O=C(O)CSc1nnc(NC(=S)Nc2ccc(F)cc2)s1 | 4.68 |  |
| O=C(O)CSc1nnc(NC(=S)Nc2ccc(Cl)cc2)s1 | 4.58 |  |
| COc1ccccc1NC(=S)Nc1nnc(SCC(=O)O)s1 | 4.57 |  |
| O=C(O)CSc1nnc(NC(=S)Nc2ccccc2)s1 | 4.56 |  |
| Cc1ccc(NC(=S)Nc2nnc(SCC(=O)O)s2)cc1 | 4.26 |  |
| O=C(O)CSc1nnc(NC(=S)Nc2cccc(F)c2)s1 | 4.50 |  |
| O=C(O)CSc1nnc(NC(=S)Nc2ccc(F)cc2F)s1 | 4.70 |  |
| O=C(O)CSc1nnc(NC(=S)Nc2cccc(Cl)c2)s1 | 4.22 |  |
| O=C(O)CSc1nnc(NC(=S)Nc2ccc(F)c(Cl)c2)s1 | 4.47 |  |
| O=C(O)CSc1nnc(NC(=S)Nc2cccc(C(F)(F)F)c2)s1 | 5.21 | 5.09 |
